Earlier results as cited in patent US20170009119A1, “DIELECTRIC FLUID AND COOLANT MADE WITH BIOBASED BASE OIL” (Novvi LLC, priority 2014, published 2017).

System: aquatic life
Conditions: European Directive 67/548/EEC

c1ccc2c(c1)CCCC2 [tetralin, 1,2,3,4-tetrahydronaphthalene]
toxicity to aquatic life (code R51/53): toxic to aquatic life with long lasting effects
